{
  "source": "ChEMBL document CHEMBL5512665",
  "about": "“A CARM1 Inhibitor Potently Suppresses Breast Cancer Both In Vitro and In Vivo” (J Med Chem, 2024)",
  "key": {"MCF7 [1]": {"test_system": "MCF7", "assay": "Antitumor activity against human MCF7 cells xenografted in BALB/C mouse assessed as downregulation of C-Myc gene expression at 50 mg/kg,ip administrated every other day for 29 days by RT-qPCR analysis", "assay_type": "functional, organism-based", "conditions": "time 29.0 day"}, "4T1 [2]": {"test_system": "4T1", "assay": "Antitumor activity against mouse 4T1 cells implanted in BALB/C mouse assessed as downregulation of C-Myc gene expression at 50 mg/kg,ip administrated daily for 14 days by RT-qPCR analysis", "assay_type": "functional, organism-based", "conditions": "time 14.0 day"}, "4T1 [3]": {"test_system": "4T1", "assay": "Antitumor activity against mouse 4T1 cells implanted in BALB/C mouse assessed as downregulation of FOXC1 gene expression at 25 mg/kg,ip administrated daily for 14 days by RT-qPCR analysis", "assay_type": "functional, organism-based", "conditions": "time 14.0 day"}, "MCF7 [4]": {"test_system": "MCF7", "assay": "Synergistic antitumor activity against human MCF7 cells xenografted in BALB/C mouse assessed as reduction in tumor size at 25 mg/kg,ip administrated every other day for 15 days in presence of 5 mg/kg tamoxifen oral administration", "assay_type": "functional, organism-based", "conditions": "time 15.0 day"}, "MCF7 [5]": {"test_system": "MCF7", "assay": "Synergistic antitumor activity against human MCF7 cells xenografted in BALB/C mouse assessed as reduction in tumor weight at 25 mg/kg,ip administrated every other day for 15 days in presence of 5 mg/kg tamoxifen oral administration", "assay_type": "functional, organism-based", "conditions": "time 15.0 day"}, "HCC1937": {"test_system": "HCC1937", "assay": "Antiproliferative activity against human HCC1937 cells assessed as reduction in cell growth incubated for 7 days by celltiter 96 aqueous one solution cell proliferation assay", "conditions": "HCC1937, 168 h"}, "MDA-MB-231": {"test_system": "MDA-MB-231", "assay": "Antitumor activity against human MDA-MB-231 cells xenografted in BALB/C mouse assessed as reduction of tumor size at 50 mg/kg,ip administrated daily for 11 days", "assay_type": "functional, organism-based", "conditions": "time 11.0 day"}},
  "note": "Active and inactive are the calls of the source. The calls are words filed in the database; no cut-off is given here.",
  "data": [
    {"smiles": "Cc1ccc(-c2nc(N3CCN(CCN(C)C)CC3)ncc2-c2ccoc2)cc1.Cl.Cl", "values": [
      {"measurement": "Activity", "setting": "MCF7 [1]", "result": "Active"},
      {"measurement": "Activity", "setting": "4T1 [2]", "result": "Active"},
      {"measurement": "Activity", "setting": "4T1 [3]", "result": "Active"},
      {"measurement": "Activity", "setting": "MCF7 [4]", "result": "Active"},
      {"measurement": "Activity", "setting": "MCF7 [5]", "result": "Active"},
      {"measurement": "EC50", "setting": "HCC1937", "result": 1970, "unit": "nM"},
      {"measurement": "Activity", "setting": "MDA-MB-231", "result": "Active"}
    ]}
  ]
}
